Assay results published in paper PMC9057582, “HIF inhibitor 32-134D eradicates murine hepatocellular carcinoma in combination with anti-PD1 therapy” (The Journal of Clinical Investigation, 2022).

Experiments:
[1] = system: Hepa1-6 tumor immune microenvironment; assay: Flow cytometry of immune cell populations in Hepa1-6 tumors; assay type: in vivo, C57L mice; settings: 40 mg/kg daily ip, 8 days
Experimental: To analyze the mechanism by which 32-134D increased the response to anti-PD1 therapy, Hepa1-6 tumor–bearing mice were treated with 32-134D or vehicle, and immune cell populations in well-established 200-mm^3 tumors were analyzed by flow cytometry (Supplemental Figure 8). […] The pivotal role of CD8^+ T cells and NK cells in antitumor immunity is underscored by the fact that expression of CD8A and CD8B mRNA as well as KLRK1 and KLRB1 mRNA (encoding the human homologs of CD314 and NK1.1, respectively) in HCC is associated with patient survival (P < 0.05; Supplemental Table 2).
Figure 5 Effect of 32-134D on the tumor immune microenvironment. (A–H) C57L mice were injected with Hepa1-6 HCC cells subcutaneously and when tumors reached a volume of 200 mm^3, the mice were treated with vehicle or 32-134D (40 mg/kg) by daily intraperitoneal injection for 8 days. Single-cell suspensions prepared from each tumor were analyzed by flow cytometry using fluorescent antibodies against the indicated cell surface proteins. The percentage of cells positive for the indicated markers is shown (mean ± SEM, n = 6). *P < 0.05 (Mann-Whitney test). M-MDSCs and G-MDSCs, monocytic and granulocytic myeloid-derived suppressor cells; TAMs, tumor-associated macrophages.
Hepa1-6 tumors were digested with collagenase (1 mg/mL) at 37°C for 30 minutes and the resulting single-cell suspension was passed through a 70-μm cell strainer and washed twice with cold PBS. Cells were resuspended in FC buffer for subsequent flow cytometry analysis. Cells were stained with at least 2 antibodies (see Supplemental Table 6) to capture different immune cell populations. G-MDSCs: Alexa Fluor 405–conjugated anti-CD11b and FITC-conjugated anti-Ly6G; M-MDSCs: Alexa Fluor 405–conjugated anti-CD11b and FITC-conjugated anti-Ly6C; TAMs: Alexa Fluor 405–conjugated anti-CD11b and allophycocyanin-conjugated (APC-conjugated) anti-F4/80; dendritic cells: Alexa Fluor 405–conjugated anti-CD11b, FITC-conjugated anti-CD11c, and APC-conjugated anti-F4/80; cytotoxic NK cells: FITC-conjugated anti-CD3, APC-conjugated anti-NK1.1, and Alexa Fluor 405–conjugated anti-CD314; effector T cells: phycoerythrin-conjugated (PE-conjugated) anti-CD8A and Alexa Fluor 405–conjugated anti–IFN-γ; activated T cells: PE-conjugated anti-CD8A, FITC-conjugated anti-CD69, and APC-conjugated anti-CD44; regulatory T cells: APC-conjugated anti-CD4, FITC-conjugated anti-CD25, and PE-conjugated anti-FOXP3. Live cells were gated using side-scatter and forward-scatter plots, and data were acquired using FACSDiva software (Becton Dickinson). Cell populations were gated using unstained control and single stained cell samples. Data analysis was performed using FlowJo software.
Supplemental Figure 8. Effect of 32-134D on Hepa1-6 tumor immune cell microenvironment. […]

[2] = system: hypoxia-induced genes in Hep3B cells; assay: RNA sequencing of Hep3B cells; assay type: cell-based, human; settings: 5 μM, 1% O2, 24 hours
Experimental: RNA sequencing (RNA-seq) was performed on 3 biological replicates of Hep3B cells exposed for 24 hours to vehicle at 20% O2, vehicle at 1% O2, or 5 μM 32-134D at 1% O2. […] Overall, 32-134D inhibited the expression of 4,689 genes, of which the 3,326 hypoxia-induced genes represented 71% of the total.
RNA was extracted using TRIzol Reagent. Quantitative real-time PCR was conducted using SYBR Green PCR Master Mix and reactions were run using a Bio-Rad thermal cycler. Primer sequences and reagent sources are listed in Supplemental Table 5. The mRNA expression of target genes was normalized to the expression of 18S rRNA and the fold change (FC) was calculated based on the threshold cycle (Ct) as FC = 2^–Δ(ΔCt), where ΔCt = Cttarget gene – Ct18S rRNA and Δ(ΔCt) = ΔCttreatment – ΔCtcontrol. For RNA-seq, total RNA was isolated and treated with DNase (Qiagen). […] An automated data analysis pipeline run in the Genialis platform consisted of the following: Sequence quality checks were performed on raw and trimmed reads with FastQC. Bbduk was used to trim adapters and filter out poor quality reads. Trimmed reads were then mapped to the STAR index (ENSEMBL 100) reference genome using the STAR ([93]) aligner. Gene expression levels were quantified with featureCounts ([94]), and differential gene expression analyses were performed with DESeq2 ([95]). […]

Brc1ccc2c(-c3csc(-c4c[nH]c5c(Br)cccc45)n3)c[nH]c2c1 [Compound 32-134D]
increase in the ratio of effector T cells to TAMs [1]: 3 fold
percentage of regulatory T cells, G-MDSCs, and dendritic cells in tumors [1]: not significantly affected
percentage of CD8+IFN-γ+ effector T cells, CD8+CD44+CD69+ activated T cells, and NK1.1+CD3–CD314+ activated NK cells in tumors ([1]; P < 0.05): significantly increased
percentage of intratumoral CD11b+F4/80+ TAMs and CD11b+Ly6C+ M-MDSCs ([1]; P < 0.05): decreased percentage
total number of genes whose expression was inhibited [2]: 4,689 genes
number of hypoxia-induced genes whose expression was inhibited ([2]; of 3,849 hypoxia-induced mRNAs): 3,326 genes
